Each structure is given as a SMILES string.

This note sets out measurements from patent US20040067959A1, “Morphinoid derivatives as delta-opioid agonists and antagonists” (priority 2000, published 2004).

Test [1] deals with T1, human delta opioid receptors (Homo sapiens, UniProt P41143).
T1 construct: expressed in transfected cells; membranes
As to the kind of experiment: radioligand binding assay, cloned human delta opioid receptor, [3H]-DADLE. How it is done:
(§1) The activity of the compounds of the present invention as selective delta ligands is determined in radioligand binding assays using cloned human delta, mu and kappa opioid receptors stably expressed in cell lines as described below.
(§2) CHO cells were subjected to stable transfection with cDNA encoding the human delta and mu opioid receptors. Clones were grown in suspension culture in serum free media. Selection was performed by growth in the absence of nucleotides.
(§3) Membranes were prepared as previously described (J. Med. Chem. 1997, 40 3192). The binding of the preferential delta ligand [^3H]-[D-Ala^2,D-Leu^5]-enkephalin (DADLE) was evaluated at its KD concentration (0.7 nM). The binding of the mu ligand [^3H]-DAMGO (Eur. J. Pharmacol., 1989, 166, 213) and of the kappa ligand [^3H]-U69593 (Excerpta Medica, 1990, 211) were carried out at 0.5 nM. Non specific binding was determined in the presence of 10 uM of naloxone. Binding data were expressed as percentage of inhibition and fitted the following equation: f(x)=100·X/(IC50+X) where X is the cold drug concentration value. The IC50 values obtained were used to calculate the inhibitory constants (Ki) according to the Cheng and Prusoff relation (Biochem. Pharmacol., 1973, 22, 3099).

Test [2] addresses T2, human mu opioid receptors (Homo sapiens, UniProt P35372).
T2 construct: expressed in transfected cells; membranes
As to the kind of experiment: radioligand binding assay, cloned human mu opioid receptor, [3H]-DAMGO. The following applies: ratio of Ki at human mu ([3H]-DAMGO 0.5 nM) to Ki at human delta. The method, then:
as §1, §2, §3

T1 sequence (P41143 whole entry): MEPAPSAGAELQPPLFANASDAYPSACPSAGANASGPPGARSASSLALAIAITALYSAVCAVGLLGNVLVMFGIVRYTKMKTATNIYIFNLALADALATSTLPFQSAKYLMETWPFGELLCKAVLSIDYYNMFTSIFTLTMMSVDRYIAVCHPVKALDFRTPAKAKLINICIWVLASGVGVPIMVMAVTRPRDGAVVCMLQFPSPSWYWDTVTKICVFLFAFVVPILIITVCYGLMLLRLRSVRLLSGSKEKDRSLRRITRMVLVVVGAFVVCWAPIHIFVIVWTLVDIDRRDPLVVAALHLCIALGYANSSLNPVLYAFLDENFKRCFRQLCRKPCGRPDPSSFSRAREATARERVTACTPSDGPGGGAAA
T2 sequence (P35372 whole entry): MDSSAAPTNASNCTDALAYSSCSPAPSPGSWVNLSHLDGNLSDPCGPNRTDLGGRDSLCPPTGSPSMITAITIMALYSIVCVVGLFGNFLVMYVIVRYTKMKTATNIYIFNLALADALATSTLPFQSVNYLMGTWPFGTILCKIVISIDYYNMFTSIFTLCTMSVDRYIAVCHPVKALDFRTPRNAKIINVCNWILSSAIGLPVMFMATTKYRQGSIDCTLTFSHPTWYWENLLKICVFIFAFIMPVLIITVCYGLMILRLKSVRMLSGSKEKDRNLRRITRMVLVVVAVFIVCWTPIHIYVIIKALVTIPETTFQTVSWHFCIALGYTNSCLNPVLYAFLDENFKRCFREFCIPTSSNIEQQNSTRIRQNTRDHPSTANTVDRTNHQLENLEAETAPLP

Take `COc1ccc2c3c1O[C@H]1c4[nH]c(C(=O)N5CCN(c6ccc(C)cc6C)CC5)c(C)c4C[C@H]4[C@@H](C2)N(C)CC[C@]314` [Example 6]: the affinity in test [1] corresponds to a Ki of 1000 pM. In addition, the “Ki mu/Ki delta” value in test [2] turned out to be 437.

Consider `COc1ccc(N2CCN(C(=O)c3[nH]c4c(c3C)C[C@H]3[C@H]5Cc6ccc(OC)c7c6[C@@]3(CCN5C)[C@H]4O7)CC2)c(OC)c1` [Example 23], for which, in test [1], the Ki turned out to be 600 pM. The “Ki mu/Ki delta” value in test [2] stood at 1010.

As usually defined, the Ki is a measure of affinity in units of concentration, obtained from inhibition or displacement. A high value points to weaker binding.
